Patent publication US11712433B2, “Compositions comprising PKM2 modulators and methods of treatment using the same” (priority 2019, dated 2023)

Assays:
MC38 tumors = assay: Metabolite levels in treated versus vehicle-treated MC38 tumors; assay type: in vivo, mice; settings: treated compared to vehicle-treated MC38 tumors
Source text: Potential downstream biomarkers, including metabolism, immune gene alterations and immune phenotyping are currently under evaluation using LC-MS/MS, NanoString and flow cytometry.

A549 cells = assay: GSH-Glo glutathione levels in A549 cells (Example 10); assay type: cell-based; settings: concentration of 10, 24 hours, relative to DMSO
Description: A549 cells were prepared according to Example 3 above. […] Cells were treated for 24 hours, and then glutathione levels were determined using a GSH-Glo assay kit and procedure from Promega (catalog #V6912).

A549 lung cancer cells = assay: A549 xenograft, traditional versus serine- and glycine-depleted diet (Example 4); assay type: in vivo, athymic nude mice; settings: 100 mpk oral gavage qd x 21
Source text: The traditional diet control was the Baker Amino Acid diet (catalog #5CC7, Test Diet) and the depleted diet was a modified Baker Amino Acid diet which compensated for serine and glycine depletion with increases in all remaining amino acids (catalog #5BJX, Test Diet).

Structure (SMILES): Nc1cccc(F)c1CN(CCC1CCS(=O)(=O)CC1)C(=O)c1cc(C(F)(F)F)n[nH]1 [compound of Structure (I)]
- levels of glucose 6-phosphate in tumors (MC38 tumors): decreased
- levels of glucose in tumors (MC38 tumors): Increased
- levels of lactate in tumors (MC38 tumors): decreased
- levels of phosphoenolpyruvate in tumors (MC38 tumors): decreased
- levels of phosphoglycerate in tumors (MC38 tumors): decreased
- glutathione levels (A549 cells): decreased levels of glutathione
- body weight (A549 lung cancer cells): no significant body weight reduction or fluctuation
- tumor volume (A549 lung cancer cells; serine- and glycine-depleted diet versus traditional diet): best reduction of tumor volume
